Several values for one entry are separate records, joined by “and”; a condition that tells them apart may be missing. Equal values may be shown once. Values belong to the molecule of their own block, whether it stands above or below them.
Tested on: 186277-243-T-J2-PDC complex spheroid viability
Experiment: Anticancer human tumor 186277-243-T-J2-PDC patient-derived colon adenocarcinoma cell line growth inhibition
Settings: for viability, T/C: stronger effect = lower value
Description: Multicellular complex tumor spheroid response to LSD1 Inhibitor Iadademstat in combination with a variety of drugs and investigational agents in selected tumor cell lines
The current study was undertaken to assess response to LSD1 inhibitors in combination with standard-of-care drugs and investigational agents in solid tumor complex spheroid models as well as in the K-562 leukemia. Complex spheroids include a stromal component modeled by human endothelial cells (HUVEC) and fibroblasts modeled by human mesenchymal stem cells (MSCs). The concentration ranges selected for each drug and investigational agent were based upon clinically achievable concentrations if the clinical Cmax of the agent was known.
Compounds. The drugs and investigational agents used in this study are listed on Table 1. All of the agents used, including staurosporine (NSC755774) and gemcitabine (NSC613327), were obtained from the Developmental Therapeutics Program, NCI. FDA-approved anticancer drugs are available from the NCI at http://dtp.nci.nih.gov/branches/dscb/oncology_drugset_explanation.html. Drugs and investigational agents were >95% pure by proton nuclear magnetic resonance (NMR) and liquid chromatography/mass spectrometry (LC/MS). Stock solutions were prepared at 400x in DMSO, stored at -70 degrees C, and diluted in fresh medium prior to their use. The final concentration of DMSO in cell culture wells never exceeded 0.25% (v/v). The FDA-approved anticancer drug set is available from the Developmental Therapeutics Program at https://dtp.cancer.gov/organization/dscb/obtaining/available_plates.htm. All drugs and investigational agents were tested over a range starting from a high concentration at or near the clinical Cmax and decreasing in half-log increments. If the clinical Cmax for an agent had not been determined, the highest concentration tested was 10 microM.
Cell Lines. The patient-derived cancer cell (PDC) lines: 292921-168-R-J2-PDC, K24384-001-R-PDC, and 521955-158-R2-J5-PDC pancreatic carcinomas, 556581-035-R-J1 ovarian carcinoma, 324938-238-R-J1-PDC, 855422-203-R-J1-PDC and 883617-216-R-J1-PDC urothelial bladder carcinomas, 743489-274-T-PDC renal cell carcinoma, 138582-R-J1 Merkel cell tumor, K60290-347-R-J1 and K57222-313-R-J1-PDC glioblastomas, 653999-131-R-J2-PDC, LG0703-F948-PDC, and 349418-098-R-PDC non-small cell lung carcinomas, 885512-296-R-J2-PDC, 171881-019-R-J1-PDC breast carcinomas and 186277-243-T-J2-PDC and 233499-124-R-J2-PDC colon carcinomas were obtained from the NCI Patient-Derived Models Repository (PDMR, https://pdmr.cancer.gov). The established cell lines NCI/ADR-RES (RRID:CVCL_14520 and OVCAR-5 (RRID:CVCL_1628) ovarian carcinomas, 786-O (RRID:CVCL_1051) and A498 (RRID:CVCL_A498) renal cell carcinoma, NCI-H211 (ATCC, cat. CRL-5824; RRID:CVCL_1529), NCI-H196 (ATCC, cat. CRL-5823, RRID:CVCL_1509), SW 1271 (ATCC, cat. CRL-2177, RRID:CVCL_1716) and NCI-H1876 (ATCC, cat. CRL-5902, RRID:CVCL_1503) small cell lung carcinomas, MDA-MB-231 (RRID:CVCL_0062) and MDA-MB-468 (RRID:CVCL_0419)breast carcinomas (10-12). Pooled donor human umbilical vein endothelial cells (HUVEC, Lonza, cat. CC-2519) and human mesenchymal stem cells (hMSC, Lonza, cat. PT-2501) were purchased from Lonza (Walkersville, MD).
Cell Culture. All cells were maintained in an incubator at 37 degrees C and 5% CO2 with 95% humidity. The PDC lines were cultured according to standard operating procedures established by the NCI PDMR (https://pdmr.cancer.gov). Briefly all PDCs were thawed and cultured in Matrigel-coated flasks prepared with a working solution of 1X Ham's F-12 nutrient mix, without supplementation (Invitrogen, Waltham, MA, cat. 11765054), 100 U/mL penicillin-streptomycin (Invitrogen, cat. 15140122), and 2.5% Matrigel (Corning Inc., Corning, NY, cat. 354248) for the first three passages. […]
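Note: 7 day exposure to compounds.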
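Throughout, for viability, T/C: 100% = DMSO vehicle control viability.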

Compound: CC(C)c1c(-c2ccccc2)nc2c(C#N)c[nH]n2c1=O
- viability, T/C (compound 0.0316 µM): 94.8% and 108%
- viability, T/C (compound 0.1 µM): 93.3% and 97.7%
- viability, T/C (compound 0.316 µM): 101% and 99.1%
- viability, T/C (compound 1 µM): 97.6% and 97.4%
- viability, T/C (compound 3.16 µM): 96% and 82.9%
- viability, T/C (compound 10 µM): 85.3% and 72.9%
- IC50 (curve of compound): > 10 µM

Compound: CC1COCCN1c1cc(C2(S(C)(=N)=O)CC2)nc(-c2ccnc3[nH]ccc23)n1 (stereo not drawn)
- viability, T/C (compound 0.0316 µM): 103% and 87.2%
- viability, T/C (compound 0.1 µM): 93.4% and 94.7%
- viability, T/C (compound 0.316 µM): 44.4% and 91.3%
- viability, T/C (compound 1 µM): 14.2% and 48%
- viability, T/C (compound 3.16 µM): 8.73% and 10%
- viability, T/C (compound 10 µM): 9.16% and 5.79%
- IC50 (curve of compound): 0.278 µM and 0.952 µM

Compound: NC1CC1c1ccc(-c2cccc(O)c2)cc1 (stereo not drawn)
- viability, T/C (compound 0.1 µM): 101%
- viability, T/C (compound 0.316 µM): 102% [middle of 25 runs]
- viability, T/C (compound 3.16 µM): 107% [middle of 25 runs]
- IC50 (compound alone, run of 02/01/2022): > 10 µM

Compound: NC1CCC(NC2CC2c2ccccc2)CC1 (stereo not drawn)
- viability, T/C (compound 0.316 µM): 104% and 114%
- IC50 (compound alone, run of 01/18/2022): > 10 µM

Compound: O=C(c1cc(Cc2n[nH]c(=O)c3ccccc23)ccc1F)N1CCN(C(=O)C2CC2)CC1
- viability, T/C (compound 0.0316 µM): 100% and 90.9%
- viability, T/C (compound 0.1 µM): 102% and 106%
- viability, T/C (compound 0.316 µM): 105% and 103%
- viability, T/C (compound 1 µM): 93.5% and 95.7%
- viability, T/C (compound 3.16 µM): 69.7% and 113%
- viability, T/C (compound 10 µM): 54.8% and 86.6%
- IC50 (curve of compound): > 10 µM

Compound: Nc1ncn(C2CC(O)C(CO)O2)c(=O)n1 (stereo not drawn) + NC1CC1c1ccc(-c2cccc(O)c2)cc1
- IC50 (curve of first compound, second compound 0.1 µM): > 1 µM
- IC50 (curve of first compound, second compound 0.316 µM): > 1 µM
- IC50 (curve of first compound, second compound 1 µM): > 1 µM
- IC50 (curve of first compound, second compound 3.16 µM): > 1 µM
- IC50 (curve of first compound, second compound 10 µM): > 1 µM
- viability, T/C (second compound 0.1 µM, first compound 0.00316 µM): 108%
- viability, T/C (second compound 0.1 µM, first compound 0.01 µM): 103%
- viability, T/C (second compound 0.1 µM, first compound 0.0316 µM): 112%
- viability, T/C (second compound 0.1 µM, first compound 0.1 µM): 106%
- viability, T/C (second compound 0.1 µM, first compound 0.316 µM): 148%
- viability, T/C (second compound 0.1 µM, first compound 1 µM): 159%
- viability, T/C (second compound 0.316 µM, first compound 0.00316 µM): 100%
- viability, T/C (second compound 0.316 µM, first compound 0.01 µM): 102%
- viability, T/C (second compound 0.316 µM, first compound 0.0316 µM): 114%
- viability, T/C (second compound 0.316 µM, first compound 0.1 µM): 138%
- viability, T/C (second compound 0.316 µM, first compound 0.316 µM): 143%
- viability, T/C (second compound 0.316 µM, first compound 1 µM): 150%
- viability, T/C (second compound 1 µM, first compound 0.00316 µM): 104%
- viability, T/C (second compound 1 µM, first compound 0.01 µM): 109%
- viability, T/C (second compound 1 µM, first compound 0.0316 µM): 107%
- viability, T/C (second compound 1 µM, first compound 0.1 µM): 119%
- viability, T/C (second compound 1 µM, first compound 0.316 µM): 137%
- viability, T/C (second compound 1 µM, first compound 1 µM): 157%
- viability, T/C (second compound 3.16 µM, first compound 0.00316 µM): 100%
- viability, T/C (second compound 3.16 µM, first compound 0.01 µM): 95.5%
- viability, T/C (second compound 3.16 µM, first compound 0.0316 µM): 97.3%
- viability, T/C (second compound 3.16 µM, first compound 0.1 µM): 121%
- viability, T/C (second compound 3.16 µM, first compound 0.316 µM): 140%
- viability, T/C (second compound 3.16 µM, first compound 1 µM): 162%
- viability, T/C (second compound 10 µM, first compound 0.00316 µM): 110%
- viability, T/C (second compound 10 µM, first compound 0.01 µM): 107%
- viability, T/C (second compound 10 µM, first compound 0.0316 µM): 98.6%
- viability, T/C (second compound 10 µM, first compound 0.1 µM): 112%
- viability, T/C (second compound 10 µM, first compound 0.316 µM): 124%
- viability, T/C (second compound 10 µM, first compound 1 µM): 148%

The next lines start with results.

- IC50 (curve of compound): 3.36 µM and 2.21 µM
Compound: CC1(C)CCC(CN2CCN(c3ccc(C(=O)NS(=O)(=O)c4ccc(NCC5CCOCC5)c([N+](=O)[O-])c4)c(Oc4cnc5[nH]ccc5c4)c3)CC2)=C(c2ccc(Cl)cc2)C1
- viability, T/C (compound 0.0316 µM): 100% and 109%
- viability, T/C (compound 0.1 µM): 108% and 90.4%
- viability, T/C (compound 0.316 µM): 93% and 94.6%
- viability, T/C (compound 1 µM): 95.7% and 97.7%
- viability, T/C (compound 3.16 µM): 52.1% and 28.3%
- viability, T/C (compound 10 µM): 8.65% and 0.19%

- IC50 (curve of compound): > 3 µM and 2.2 µM
Compound: CCN(c1cc(-c2ccc(CN3CCOCC3)cc2)cc(C(=O)NCc2c(C)cc(C)[nH]c2=O)c1C)C1CCOCC1
- viability, T/C (compound 0.00949 µM): 106% and 93.9%
- viability, T/C (compound 0.03 µM): 99.2% and 112%
- viability, T/C (compound 0.0949 µM): 108% and 96.8%
- viability, T/C (compound 0.3 µM): 99.2% and 104%
- viability, T/C (compound 0.949 µM): 99.2% and 108%
- viability, T/C (compound 3 µM): 101% and 30.2%

- IC50 (curve of compound): 2.97 µM and 4.37 µM
Compound: COc1ccc([C@@H](O)c2cc(-c3ncnc4cc(N5CCOCC5)ccc34)c(F)cc2Cl)nn1
- viability, T/C (compound 0.0316 µM): 103% and 101%
- viability, T/C (compound 0.1 µM): 104% and 100%
- viability, T/C (compound 0.316 µM): 87.8% and 101%
- viability, T/C (compound 1 µM): 84.4% and 100%
- viability, T/C (compound 3.16 µM): 46.7% and 64.8%
- viability, T/C (compound 10 µM): 3.51% and 12.2%

From PubChem BioAssay AID1918933 (Molecular Pharmacology Branch, DTP, NCI, 2023)
